# According to US20190134005A1 (BioMarin Pharmaceutical Inc., priority 2016, published 2019):
# Molecular target: T1, human CGT (Homo sapiens, UniProt Q16880)
# T1 sequence (Q16880 21-541): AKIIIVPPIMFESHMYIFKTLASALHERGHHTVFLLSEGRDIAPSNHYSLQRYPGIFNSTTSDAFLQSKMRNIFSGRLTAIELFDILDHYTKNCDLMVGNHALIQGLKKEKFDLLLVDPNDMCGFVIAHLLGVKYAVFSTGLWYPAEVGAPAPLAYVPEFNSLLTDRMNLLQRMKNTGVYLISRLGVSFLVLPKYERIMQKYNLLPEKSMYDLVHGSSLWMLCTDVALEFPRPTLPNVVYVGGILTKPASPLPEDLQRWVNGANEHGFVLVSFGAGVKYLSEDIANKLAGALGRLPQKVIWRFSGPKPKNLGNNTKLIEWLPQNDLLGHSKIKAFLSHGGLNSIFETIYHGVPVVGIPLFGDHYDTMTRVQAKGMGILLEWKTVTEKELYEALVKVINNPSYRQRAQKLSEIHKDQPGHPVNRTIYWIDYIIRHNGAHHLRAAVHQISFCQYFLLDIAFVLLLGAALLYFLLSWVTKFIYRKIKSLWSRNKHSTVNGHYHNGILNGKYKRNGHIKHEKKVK
# Assay: CGT Enzyme Assay (Biological Example 2, RapidFire/MS/MS method with 0.01% Tween 80 added)
# Format: biochemical
# Conditions: enzymatic assay, CHO/CGT lysate
# Experimental: Full-length human CGT cDNA was cloned into the BamH1/Xho1 site of pcDNA3.1 (+) mammalian expression vector (V90-20, Invitrogen, Carlsbad, Calif.) and the plasmid was transfected into Chinese hamster ovary (CHO) cells. Lysate was prepared using M-PER (Mammalian Protein Extraction Reagent, ThermoFisher Scientific, Grand Island, N.Y.) in the presence of a protease inhibitor cocktail (P8340, Sigma, Saint Louis, Mo.). Each 100 mm dish (100% confluent, approximately 1×10^7 cells) was lysed with 250 μL of M-PER containing protease inhibitors. Protein concentration was determined using a Pierce BCA protein assay kit (ThermoFisher Scientific). […] The final concentration of DMSO was 0.5% in both compound-treated and mock-treated samples. Each individual reaction was diluted with 80 μL of methanol:acetronitrile (1:3) containing 5 μM N-docdecanoyl-NBD-galactosylceramide (internal standard) to stop the reaction. 200 μL H2O:acetonitile (1:1) was added to precipitate the protein. After sufficient mixing, the plates were centrifuged at 2469 g for 38 minutes, 200 μl of supernatant was transferred to a LC-MS 96-deep well plate and a second spin was performed at 2469 g for 10 minutes. The final supernatant was injected in triplicate for RapidFire/MS/MS analysis.
# The quantitative analysis of C6-NBD-dihydro-ceramide and C6-NBD-dihydro-galactosylceramide was performed on a Rapid Fire 360 high-throughput mass spectrometry system (Agilent Technologies, Palo Alto, Calif.) coupled with a API4000^+ triple quadrupole mass spectrometer (Applied Biosystems, Concord, Ontario, Canada). RapidFire software packages, including RapidFire Control panel, RapidFire UI and RapidFire Integrator (Agilent Technologies), were used to control the RapidFire instrument and to process data. Analyst 1.6.2 software packages (Applied Biosystems) were used to control the MS system and acquire MS data. 10 μL of sample was loaded on a micro-scale C4 solid-phase extraction (SPE) cartridge (Agilent Technologies) and salts were removed using water supplemented with 0.1% formic acid at the flow rate of 1.5 mL/min for 3 sec. C6-NBD-dihydro-ceramide and C6-NBD-dihydro-galactosylceramide were co-eluted into the mass spectrometer using acetonitrile containing 0.1% formic acid at the flow rate of 1.0 mL/min for 3 sec. The total cycle time of one injection was 8 secs. The MS/MS detection was performed in ESI negative mode.
# The C6-NBD-dihydro-galactosylceramide reading was normalized first by dividing the peak area of C6-NBD-dihydro-galactosylceramide by the peak area of the internal standard, N-docdecanoyl-NBD-galactosylceramide.
row,Compound,IC50
1,C[C@@]1(C(F)(F)F)[C@H](c2cccc(OC(F)(F)F)c2)N(c2ccc(Cl)cc2)C(=O)N1c1ccc(Cl)cc1 [Example 25-1],< 1000 nM
2,"CC[C@@]1(C)[C@H](c2cccc(OC(F)(F)F)c2)N(c2ccc(Cl)cc2)C(=O)N1c1ccc(Cl)cc1 [Example 19-3, (4S,5S)-1,3-bis(4-chlorophenyl)-4-ethyl-4-methyl-5-(3-(trifluoromethoxy)phenyl)imidazolidin-2-one]",< 1000 nM
3,N#Cc1cccc(C23CCCCC2N(c2ccc(Cl)cc2)C(=O)N3c2ccc(Cl)cc2)c1 (stereo not drawn) [Example 14],< 1000 nM
4,"Cc1ccc(N2C(=O)N(c3ccc(C#N)cc3)[C@@H](c3cccc(C#N)c3)C2(C)C)cc1 [Example 48-2, (S)-3-(3-(4-cyanophenyl)-5,5-dimethyl-2-oxo-1-(p-tolyl)imidazolidin-4-yl)benzonitrile]",< 1000 nM
5,"O=C1N(c2ccc(Cl)cc2)[C@@H](c2cccc(OC(F)(F)F)c2)C2(CCCC2)N1c1ccc(Cl)cc1 [Example 15-3, (S)-1,3-bis(4-chlorophenyl)-4-(3-(trifluoromethoxy)phenyl)-1,3-diazaspiro[4.4]nonan-2-one]",10000 to 30000 nM
6,"CCC[C@]1(C)[C@H](c2cccc(OC(F)(F)F)c2)N(c2ccc(C#N)cc2)C(=O)N1c1ccc(C#N)cc1 [Example 52-2, 4,4′-((4R,5S)-4-methyl-2-oxo-4-propyl-5-(3-(trifluoromethoxy)phenyl)imidazolidine-1,3-diyl)dibenzonitrile]",< 1000 nM
7,"Cc1ccc(N2C(=O)N(c3ccc(C)cc3)C3(CCCC3)[C@@H]2c2cccc(OC(F)(F)F)c2)cc1 [Example 35-2, (S)-1,3-di-p-tolyl-4-(3-(trifluoromethoxy)phenyl)-1,3-diazaspiro[4.4]nonan-2-one]",< 1000 nM
8,"CCC[C@@]1(C)[C@@H](c2cccc(C#N)c2)N(c2ccc(Cl)cc2)C(=O)N1c1ccc(Cl)cc1 [Example 33-4, 3-((4R,5S)-1,3-bis(4-chlorophenyl)-5-methyl-2-oxo-5-propylimidazolidin-4-yl)benzonitrile]",< 1000 nM
9,"Cc1ccc(N2C(=O)N(c3ccc(C#N)cc3)C(C)(C)[C@@H]2c2cccc(C#N)c2)cc1 [Example 54-2, (S)-3-(1-(4-cyanophenyl)-5,5-dimethyl-2-oxo-3-(p-tolyl)imidazolidin-4-yl)benzonitrile]",< 1000 nM
10,"N#Cc1ccc(N2C(=O)N(c3ccc(Cl)cc3)[C@@H](c3cccc(OC(F)(F)F)c3)C23COC3)cc1 [Example 46-2, (S)-4-(7-(4-chlorophenyl)-6-oxo-8-(3-(trifluoromethoxy)phenyl)-2-oxa-5,7-diazaspiro[3.4]octan-5-yl)benzonitrile]",1000 to 10000 nM
11,"CCC[C@@]1(C)[C@H](c2cccc(OC(F)(F)F)c2)N(c2ccc(C#N)cc2)C(=O)N1c1ccc(C#N)cc1 [Example 52-5, 4,4′-((4S,5S)-4-methyl-2-oxo-4-propyl-5-(3-(trifluoromethoxy)phenyl)imidazolidine-1,3-diyl)dibenzonitrile]",< 1000 nM
12,"CC1(C)[C@H](c2cccc(OC(F)(F)F)c2)N(c2ccc(Cl)cc2)C(=O)N1c1ccc(Cl)cc1 [Example 7-2, (S)-1,3-bis(4-chlorophenyl)-4,4-dimethyl-5-(3-(trifluoromethoxy)phenyl)imidazolidin-2-one]",< 1000 nM
13,"Cc1ccc(N2C(=O)N(c3ccc(C#N)cc3)[C@H](c3cccc(OC(F)(F)F)c3)C2(C)C)cc1 [Example 50-1, (R)-4-(4,4-dimethyl-2-oxo-3-(p-tolyl)-5-(3-(trifluoromethoxy)phenyl)imidazolidin-1-yl)benzonitrile]",< 1000 nM
14,O=C1N(c2ccc(Cl)cc2)C2CCCC2(c2cccc(O)c2)N1c1ccc(Cl)cc1 (stereo not drawn) [Example 18],10000 to 30000 nM
15,"O=C1N(c2ccc(Cl)cc2)C2CCCCC2(c2cccc(OC(F)(F)F)c2)N1c1ccc(Cl)cc1 (stereo not drawn) [Example 15-1, 1,3-bis(4-chlorophenyl)-3a-(3-(trifluoromethoxy)phenyl)octahydro-2H-benzo[d]imidazol-2-one]",10000 to 30000 nM
